We go through 15 compounds from patent publication US9512132B2, “Pyrazole compounds as CB2 agonists” (Hoffmann-La Roche Inc., priority 2013, dated 2016).

One experiment has as its target human CB2 receptor (Homo sapiens (Human), UniProt P34972). The experiment can be described thus: cAMP assay, CHO cells expressing human CB2 receptors. Conditions: functional cAMP assay, CHO cells expressing human CB2; read-out: human CB2 EC50. It counts as cell-based. The protocol:
(§1) CHO cells expressing human CB1 or CB2 receptors are seeded 17-24 hours prior to the experiment 50.000 cells per well in a black 96 well plate with flat clear bottom (Corning Costar #3904) in DMEM (Invitrogen No. 31331), lx HT supplement, with 10% fetal calf serum and incubated at 5% CO2 and 37° C. in a humidified incubator. The growth medium was exchanged with Krebs Ringer Bicarbonate buffer with 1 mM IBMX and incubated at 30° C. for 30 min. Compounds were added to a final assay volume of 100 μl and incubated for 30 min at 30° C. Using the cAMP-Nano-TRF detection kit the assay (Roche Diagnostics) was stopped by the addition of 50 μl lysis reagent (Tris, NaCl, 1.5% Triton X100, 2.5% NP40, 10% NaN3) and 50 μl detection solutions (20 μM mAb Alexa700-cAMP 1:1, and 48 μM Ruthenium-2-AHA-cAMP) and shaken for 2 h at room temperature. The time-resolved energy transfer is measured by a TRF reader (Evotec Technologies GmbH), equipped with a ND:YAG laser as excitation source. The plate is measured twice with the excitation at 355 nm and at the emission with a delay of 100 ns and a gate of 100 ns, total exposure time 10 s at 730 (bandwidth 30 nm) or 645 nm (bandwidth 75 nm), respectively. The FRET signal is calculated as follows: FRET=T730-Alexa730-P(T645-B645) with P=Ru730-B730/Ru645-B645, where T730 is the test well measured at 730 nM, T645 is the test well measured at 645 nm, B730 and B645 are the buffer controls at 730 nm and 645 nm, respectively. cAMP content is determined from the function of a standard curve spanning from 10 μM to 0.13 nM cAMP.
(§2) EC50 values were determined using Activity Base analysis (ID Business Solution, Limited). The EC50 values for a wide range of cannabinoid agonists generated from this assay were in agreement with the values published in the scientific literature.
(cAMP levels reflect the balance of adenylyl cyclase and phosphodiesterase activity.)

For a further experiment, the target named is human CB1 receptor (Homo sapiens (Human), UniProt P21554). The experiment can be described thus: cAMP assay, CHO cells expressing human CB1 receptors. The following applies: functional cAMP assay, CHO cells expressing human CB1; read-out: human CB1 EC50. It is filed as cell-based. The protocol: as §1, §2
Sequence of human CB1 receptor (P21554 whole entry): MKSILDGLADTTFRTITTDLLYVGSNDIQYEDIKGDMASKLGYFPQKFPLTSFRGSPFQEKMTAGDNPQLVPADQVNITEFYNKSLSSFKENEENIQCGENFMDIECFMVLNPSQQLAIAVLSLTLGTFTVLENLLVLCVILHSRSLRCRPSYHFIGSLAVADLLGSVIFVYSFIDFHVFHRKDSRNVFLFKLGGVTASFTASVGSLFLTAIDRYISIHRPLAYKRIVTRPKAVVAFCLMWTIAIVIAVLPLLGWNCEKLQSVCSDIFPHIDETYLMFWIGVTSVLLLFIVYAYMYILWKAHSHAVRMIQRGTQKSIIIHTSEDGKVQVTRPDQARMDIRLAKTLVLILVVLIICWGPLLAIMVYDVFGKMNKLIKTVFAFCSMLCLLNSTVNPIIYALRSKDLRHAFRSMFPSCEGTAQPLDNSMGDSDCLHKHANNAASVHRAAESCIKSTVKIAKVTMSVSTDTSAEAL

Each structure is given as a SMILES string.

Sequence of human CB2 receptor (P34972 whole entry): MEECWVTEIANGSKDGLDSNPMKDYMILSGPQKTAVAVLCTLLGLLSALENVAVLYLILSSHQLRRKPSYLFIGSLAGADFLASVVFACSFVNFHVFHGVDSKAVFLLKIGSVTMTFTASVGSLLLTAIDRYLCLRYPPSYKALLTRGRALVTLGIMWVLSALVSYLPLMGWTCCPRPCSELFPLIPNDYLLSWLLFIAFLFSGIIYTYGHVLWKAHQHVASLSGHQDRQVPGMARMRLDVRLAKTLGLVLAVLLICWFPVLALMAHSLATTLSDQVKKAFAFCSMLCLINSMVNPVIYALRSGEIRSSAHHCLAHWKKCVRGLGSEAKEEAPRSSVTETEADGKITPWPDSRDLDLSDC

The term EC50 denotes the concentration that produces a half-maximal response. With `COc1ccc(Cn2ncc3c(N4CCC(F)(F)C4)cc(C4CC4)nc32)cc1` [Example 24, 6-Cyclopropyl-4-(3,3-difluoro-pyrrolidin-1-yl)-1-[(4-methoxyphenyl)methyl]-1H-pyrazolo[3,4-b]pyridine], the EC50 is 0.0175 µM on human CB2 receptor and greater than 10 µM on human CB1 receptor.

For `Cc1nonc1Cn1ncc2c(N3CC[C@H](O)C3)nc(C(C)(C)C)nc21` [Example 25, (S)-1-[6-tert-Butyl-1-(4-methyl-furazan-3-ylmethyl)-1H-pyrazolo[3,4-d]pyrimidin-4-yl]-pyrrolidin-3-ol], the figures for the EC50 at human CB2 receptor and at human CB1 receptor were 0.0004 µM and greater than 10 µM, respectively.

`Cc1nonc1CO[C@H]1CCN(c2nc(C(C)(C)C)nc3c2cnn3Cc2nonc2C)C1` [Example 26, 6-tert-Butyl-4-[(S)-3-(4-methyl-furazan-3-ylmethoxy)-pyrrolidin-1-yl]-1-(4-methyl-furazan-3-ylmethyl)-1H-pyrazolo[3,4-d]pyrimidine]: the figures for the half-maximal effective concentration (EC50) on human CB2 receptor and on human CB1 receptor were 0.0356 µM and greater than 10 µM, respectively.

Consider `Cc1nonc1Cn1ncc2c(N3CCC(F)(F)C3)nc(C3CC3)cc21` [Example 27, 6-Cyclopropyl-4-(3,3-difluoro-pyrrolidin-1-yl)-1-(4-methyl-furazan-3-ylmethyl)-1H-pyrazolo[4,3-c]pyridine], for which the EC50 on human CB2 receptor is 0.0425 µM; at human CB1 receptor it was greater than 10 µM.

Regarding `Cc1nonc1Cn1ncc2c(N3CCC(F)(F)C3)cc(C3CC3)nc21` [Example 28, 6-Cyclopropyl-4-(3,3-difluoro-pyrrolidin-1-yl)-1-(4-methyl-furazan-3-ylmethyl)-1H-pyrazolo[3,4-b]pyridine], the figures for the EC50 at human CB2 receptor and at human CB1 receptor were 0.0019 µM and greater than 10 µM, respectively.

`CC(C)(C)c1nc(N2CC[C@H](O)C2)c2cnn(Cc3ccccc3C(F)(F)F)c2n1` [Example 29, (S)-1-[6-tert-Butyl-1-[(2-trifluoromethylphenyl)methyl]-1H-pyrazolo[3,4-d]pyrimidin-4-yl]pyrrolidin-3-ol]: the values for the EC50 on human CB2 receptor and on human CB1 receptor were 0.0019 µM and greater than 10 µM, respectively.

Regarding `CC(C)(C)c1nc(N2CC[C@H](O)C2)c2cnn(Cc3ccccc3S(C)(=O)=O)c2n1` [Example 30, (S)-1-[6-tert-Butyl-1-(2-methanesulfonyl-benzyl)-1H-pyrazolo[3,4-d]pyrimidin-4-yl]-pyrrolidin-3-ol], the results for the concentration giving a half-maximal response (EC50) on human CB2 receptor and on human CB1 receptor were 0.0024 µM and greater than 10 µM, respectively.

On to `Cn1nnnc1Cn1ncc2c(N3CC[C@H](O)C3)nc(C(C)(C)C)nc21` [Example 31, (S)-1-[6-tert-Butyl-1-(1-methyl-1H-tetrazol-5-ylmethyl)-1H-pyrazolo[3,4-d]pyrimidin-4-yl]-pyrrolidin-3-ol], for which the EC50 on human CB2 receptor was 0.0173 µM; on human CB1 receptor, greater than 10 µM.

As to `CC(C)(C)c1nc(N2CC[C@H](O)C2)c2cnn(Cc3ncccc3Cl)c2n1` [Example 32, (S)-1-[6-tert-Butyl-1-(3-chloro-pyridin-2-ylmethyl)-1H-pyrazolo[3,4-d]pyrimidin-4-yl]-pyrrolidin-3-ol], the values for the EC50 at human CB2 receptor and at human CB1 receptor were 0.0015 µM and greater than 10 µM, respectively.

Regarding `CC(C)(C)c1nc(N2CC[C@H](O)C2)c2cnn(Cc3nnnn3C3CC3)c2n1` [Example 33, (S)-1-[6-tert-Butyl-1-(1-cyclopropyl-1H-tetrazol-5-ylmethyl)-1H-pyrazolo[3,4-d]pyrimidin-4-yl]-pyrrolidin-3-ol], the EC50 at human CB2 receptor was 0.0088 µM; on human CB1 receptor, greater than 10 µM.

For the compound `CC(C)(C)c1nc(N2CCC[C@@H]2CO)c2cnn(Cc3ccccc3C(F)(F)F)c2n1` [Example 34, {(R)-1-[6-tert-Butyl-1-[(2-trifluoromethylphenyl)methyl]-1H-pyrazolo[3,4-d]pyrimidin-4-yl]pyrrolidin-2-yl}-methanol], the EC50 is 0.005 µM on human CB2 receptor and greater than 10 µM at human CB1 receptor.

With `COC[C@H]1CCCN1c1nc(C(C)(C)C)nc2c1cnn2Cc1ccccc1C(F)(F)F` [Example 35, 6-tert-Butyl-4-((R)-2-methoxymethyl-pyrrolidin-1-yl)-1-[(2-trifluoromethylphenyl)methyl]-1H-pyrazolo[3,4-d]pyrimidine], the EC50 was 0.0133 µM at human CB2 receptor and greater than 10 µM on human CB1 receptor.

`COC[C@H]1CCCN1c1nc(C(C)(C)C)nc2c1cnn2Cc1nonc1C` [Example 36, 6-tert-Butyl-4-((R)-2-methoxymethyl-pyrrolidin-1-yl)-1-(4-methyl-furazan-3-ylmethyl)-1H-pyrazolo[3,4-d]pyrimidine]: the EC50 at human CB2 receptor is 0.0014 µM; at human CB1 receptor, greater than 10 µM.

Take `FC1(F)CCN(c2nc(Cl)nc3c2cnn3Cc2ccccc2C(F)(F)F)C1` [Example 37, 6-Chloro-4-(3,3-difluoropyrrolidin-1-yl)-1-[[2-(trifluoromethyl)phenyl]methyl]pyrazolo[3,4-d]pyrimidine]: the EC50 on human CB2 receptor is 0.0172 µM; on human CB1 receptor, greater than 10 µM.

As to `CC(C)(C)COc1nc(N2CCC(F)(F)C2)c2cnn(Cc3ccccc3C(F)(F)F)c2n1` [Example 38, 4-(3,3-Difluoropyrrolidin-1-yl)-6-(2,2-dimethylpropoxy)-1-[[2-(trifluoromethyl)phenyl]methyl]pyrazolo[3,4-d]pyrimidine], the concentration giving a half-maximal response (EC50) at human CB2 receptor was 0.016 µM; on human CB1 receptor it was greater than 10 µM.
